Test results as given in US20020111274A1, “1-alkyl-3-[1-(substituted phenyl) benzotriazol-6-yl] uracils” (BASF Aktiengesellschaft, priority 2000, published 2002).

What was measured:
Design in all cases: scale not given here
[1] = system: CHEAL Lambsquarters, Common; assay: Preemergence herbicidal evaluation, CHEAL; format: in vivo, Chenopodium album, L.; conditions: preemergence
From the text: (§1) The preemergence herbicidal activity of the test compounds of the present invention is exemplified by the following tests in which the seeds of a variety of monocotyledonous and dicotyledonous plants are separately mixed with potting soil and planted on top of approximately one inch of soil in separate pint cups. […] The treated cups are then placed on greenhouse benches, watered and cared for in accordance with conventional greenhouse procedures. From four to five weeks after treatment, the tests are terminated and each cup is examined and rated according to the rating system provided in Example 46.

[2] = system: CHEAL Lambsquarters, Common; assay: Postemergence herbicidal evaluation, CHEAL; format: in vivo, Chenopodium album, L.; conditions: postemergence spray, rated about two-three weeks after treatment
Procedure: (§2) In this evaluation, seedling plants are grown in jiffy flats for about two weeks. The test compounds are dispersed in 80/20 acetone/water mixtures containing 1.0% SUN-IT® II, a methylated seed oil, in sufficient quantities to provide the equivalent of about 0.006 kg to 0.400 kg per hectare of active compound when applied to the plants through a spray nozzle operating at 40 psi for a predetermined time. After spraying, the plants are placed on greenhouse benches and are cared for in accordance with conventional greenhouse procedures. Approximately two - three weeks after treatment, the seedling plants are examined and rated according to the rating system set forth below. Where more than one test is involved for a given compound, the data are averaged.

[3] = system: TRZAWR Wheat, Winter, cv Riband; assay: Preemergence herbicidal evaluation, TRZAWR; format: in vivo, Triticum aestivum; conditions: preemergence
From the text: as §1

GALAP Galium = assay: Postemergence herbicidal evaluation, GALAP; format: in vivo, Galium aparine; conditions: postemergence spray, rated about two-three weeks after treatment
Procedure: as §2

ECHOG Barnyardgrass = assay: Preemergence herbicidal evaluation, ECHOG; format: in vivo, Echinochloa crus-galli, (L.) Beau; conditions: preemergence
From the text: as §1

[4] = system: IPOHE Morningglory, Ivyleaf; assay: Postemergence herbicidal evaluation, IPOHE; format: in vivo, Ipomoea hederacea, (L.) Jacq.; conditions: postemergence spray, rated about two-three weeks after treatment
Procedure: as §2

AMBEL Ragweed, Common [5] = assay: Preemergence herbicidal evaluation, AMBEL; format: in vivo, Ambrosia artemisifolia, L.; conditions: preemergence
From the text: as §1

ZEAMX Corn, Field = assay: Preemergence herbicidal evaluation, ZEAMX; format: in vivo, Zea mays, L. (Sammel-Bezeichnung); conditions: preemergence
From the text: as §1

ORYSAT Rice, Tebonnet = assay: Postemergence herbicidal evaluation, ORYSAT; format: in vivo, Oryza sativa, (L.); conditions: postemergence spray, rated about two-three weeks after treatment
Procedure: as §2

[6] = system: IPOHE Morningglory, Ivyleaf; assay: Preemergence herbicidal evaluation, IPOHE; format: in vivo, Ipomoea hederacea, (L.) Jacq.; conditions: preemergence
From the text: as §1

AMBEL Ragweed, Common [7] = assay: Postemergence herbicidal evaluation, AMBEL; format: in vivo, Ambrosia artemisifolia, L.; conditions: postemergence spray, rated about two-three weeks after treatment
Procedure: as §2

CASOB Sicklepod = assay: Preemergence herbicidal evaluation, CASOB; format: in vivo, Cassia obtusifolia, L.; conditions: preemergence
From the text: as §1

SMILES: Cc1ccc(-n2nnc3cc(F)c(-n4c(=O)cc(C(F)(F)F)n(C)c4=O)cc32)cc1 [Example 19]
- CHEAL herbicidal rating ([1]; rate 0.016 kg/ha): 9.0
- CHEAL herbicidal rating ([1]; rate 0.032 kg/ha): 9.0
- CHEAL herbicidal rating ([1]; rate 0.062 kg/ha): 9.0
- CHEAL herbicidal rating ([1]; rate 0.125 kg/ha): 9.0
- Postemergence herbicidal rating CHEAL ([2]; 0.008 kg/ha): 1.0
- Postemergence herbicidal rating CHEAL ([2]; 0.016 kg/ha): 2.0
- Postemergence herbicidal rating CHEAL ([2]; 0.032 kg/ha): 3.0
- Postemergence herbicidal rating CHEAL ([2]; 0.062 kg/ha): 5.0
- TRZAWR herbicidal rating ([3]; rate 0.016 kg/ha): 0.0
- TRZAWR herbicidal rating ([3]; rate 0.032 kg/ha): 1.0
- TRZAWR herbicidal rating ([3]; rate 0.062 kg/ha): 2.0
- TRZAWR herbicidal rating ([3]; rate 0.125 kg/ha): 3.0
- Postemergence herbicidal rating GALAP (GALAP Galium; 0.008 kg/ha): 0.0
- Postemergence herbicidal rating GALAP (GALAP Galium; 0.016 kg/ha): 3.0
- Postemergence herbicidal rating GALAP (GALAP Galium; 0.032 kg/ha): 4.0
- Postemergence herbicidal rating GALAP (GALAP Galium; 0.062 kg/ha): 4.0
- ECHCG herbicidal rating (ECHOG Barnyardgrass; rate 0.016 kg/ha): 0.5
- ECHCG herbicidal rating (ECHOG Barnyardgrass; rate 0.032 kg/ha): 4.0
- ECHCG herbicidal rating (ECHOG Barnyardgrass; rate 0.062 kg/ha): 7.0
- ECHCG herbicidal rating (ECHOG Barnyardgrass; rate 0.125 kg/ha): 9.0
- Postemergence herbicidal rating IPOHE ([4]; 0.008 kg/ha): 4.0
- Postemergence herbicidal rating IPOHE ([4]; 0.016 kg/ha): 4.0
- Postemergence herbicidal rating IPOHE ([4]; 0.032 kg/ha): 9.0
- Postemergence herbicidal rating IPOHE ([4]; 0.062 kg/ha): 9.0
- AMBEL herbicidal rating (AMBEL Ragweed, Common [5]; rate 0.016 kg/ha): 4.5
- AMBEL herbicidal rating (AMBEL Ragweed, Common [5]; rate 0.032 kg/ha): 5.5
- AMBEL herbicidal rating (AMBEL Ragweed, Common [5]; rate 0.062 kg/ha): 8.0
- AMBEL herbicidal rating (AMBEL Ragweed, Common [5]; rate 0.125 kg/ha): 9.0
- ZEAMX herbicidal rating (ZEAMX Corn, Field; rate 0.016 kg/ha): 1.0
- ZEAMX herbicidal rating (ZEAMX Corn, Field; rate 0.032 kg/ha): 1.5
- ZEAMX herbicidal rating (ZEAMX Corn, Field; rate 0.062 kg/ha): 4.0
- ZEAMX herbicidal rating (ZEAMX Corn, Field; rate 0.125 kg/ha): 6.5
- Postemergence herbicidal rating ORYSAT (ORYSAT Rice, Tebonnet; 0.008 kg/ha): 2.0
- Postemergence herbicidal rating ORYSAT (ORYSAT Rice, Tebonnet; 0.016 kg/ha): 2.5
- Postemergence herbicidal rating ORYSAT (ORYSAT Rice, Tebonnet; 0.032 kg/ha): 3.0
- Postemergence herbicidal rating ORYSAT (ORYSAT Rice, Tebonnet; 0.062 kg/ha): 4.0
- IPOHE herbicidal rating ([6]; rate 0.016 kg/ha): 1.0
- IPOHE herbicidal rating ([6]; rate 0.032 kg/ha): 1.5
- IPOHE herbicidal rating ([6]; rate 0.062 kg/ha): 5.5
- IPOHE herbicidal rating ([6]; rate 0.125 kg/ha): 8.0
- Postemergence herbicidal rating AMBEL (AMBEL Ragweed, Common [7]; 0.008 kg/ha): 0.0
- Postemergence herbicidal rating AMBEL (AMBEL Ragweed, Common [7]; 0.016 kg/ha): 1.0
- Postemergence herbicidal rating AMBEL (AMBEL Ragweed, Common [7]; 0.032 kg/ha): 4.0
- Postemergence herbicidal rating AMBEL (AMBEL Ragweed, Common [7]; 0.062 kg/ha): 5.0
- CASOB herbicidal rating (CASOB Sicklepod; rate 0.016 kg/ha): 1.0
- CASOB herbicidal rating (CASOB Sicklepod; rate 0.032 kg/ha): 1.5
- CASOB herbicidal rating (CASOB Sicklepod; rate 0.062 kg/ha): 1.5
- CASOB herbicidal rating (CASOB Sicklepod; rate 0.125 kg/ha): 1.0
